Measurements taken from article PMC12298351, “Novel 3,19-(N-Phenyl-3-(4-fluorophenyl)-pyrazole) Acetal of Andrographolide Promotes Cell Cycle Arrest and Apoptosis in MDA-MB-231 Breast Cancer Cells” (Pharmaceuticals, 2025).

Legend:
HCT-15 = details: HCT-15, Colon
HCC-2998 = details: HCC-2998, Colon
RXF 393 = details: RXF 393, Renal
OVCAR-5 = details: OVCAR-5, Ovarian
SK-MEL-2 = details: SK-MEL-2, Melanoma
MDA-MB-435 = details: MDA-MB-435, Melanoma
UACC-62 = details: UACC-62, Melanoma
IGROV1 = details: IGROV1, Ovarian
UACC-257 = details: UACC-257, Melanoma
MDA-MB-468 = details: MDA-MB-468, Breast
DU-145 = details: DU-145, Prostate
OVCAR-4 = format: cell-based; details: OVCAR-4, Ovarian
BT-549 = format: cell-based; details: BT-549, Breast
HT29 = details: HT29, Colon
SK-OV-3 = details: SK-OV-3, Ovarian
A498 = details: A498, Renal
CAKI-1 = details: CAKI-1, Renal
OVCAR-3 = details: OVCAR-3, Ovarian
[1] = read-out: 50% lethal concentration (LC50), Non-Small Cell Lung
[2] = read-out: 50% lethal concentration (LC50)
[3] = read-out: 50% lethal concentration (LC50), Leukemia

For `C=C1CCC2C3(C)COC(c4cn(-c5ccccc5)nc4-c4cccc(F)c4)OC3CCC2(C)C1CC=C1C(=O)OCC1O` (stereo not shown) [1c], the Total growth inhibition (TGI) (A549/ATCC; Non-Small Cell Lung) was 25.3 µM, the GI50 (A549/ATCC; Non-Small-Cell Lung) was 3.88 µM and the CC50 (A549/ATCC; [1]) was > 100 µM. It also gave a Total growth inhibition (TGI) (EKVX; Non-Small Cell Lung) of 5.17 µM, a GI50 (EKVX; Non-Small-Cell Lung) of 2.21 µM and a CC50 (EKVX; [1]) of 56 µM. It also gave a GI50 (LOX IMVI; Melanoma) of 1.44 µM, a Total growth inhibition (TGI) (LOX IMVI; Melanoma) of 2.75 µM and a CC50 (LOX IMVI; read-out: 50% lethal concentration (LC50), Melanoma) of 5.25 µM. It also gave a Total growth inhibition (TGI) (NCI-H460; NCI-H460, Non-Small Cell Lung) of 3.59 µM, a GI50 (NCI-H460; NCI-H460, Non-Small-Cell Lung) of 1.81 µM and a GI50 (HCT-15) of 1.57 µM. The Total growth inhibition (TGI) (HCT-15) was 3.18 µM, the CC50 (HCT-15; [2]) was 6.45 µM and the Total growth inhibition (TGI) (HOP-62; HOP-62, Non-Small Cell Lung) was 3.86 µM. The GI50 (HOP-62; HOP-62, Non-Small-Cell Lung) was 1.74 µM, the CC50 (HOP-62; read-out: 50% lethal concentration (LC50), HOP-62, Non-Small Cell Lung) was 8.55 µM and the Total growth inhibition (TGI) (NCI-H522; NCI-H522, Non-Small Cell Lung) was 3.08 µM. For the same molecule, the GI50 (NCI-H522; NCI-H522, Non-Small-Cell Lung) was 1.52 µM, the CC50 (NCI-H522; read-out: 50% lethal concentration (LC50), NCI-H522, Non-Small Cell Lung) was 6.24 µM and the Total growth inhibition (TGI) (NCI-H226; NCI-H226, Non-Small Cell Lung) was 3.19 µM. For the same molecule, the GI50 (NCI-H226; NCI-H226, Non-Small-Cell Lung) was 1.67 µM, the CC50 (NCI-H226; read-out: 50% lethal concentration (LC50), NCI-H226, Non-Small Cell Lung) was 6.08 µM and the GI50 (SR; Leukemia) was 2.2 µM. For the same molecule, the Total growth inhibition (TGI) (SR; Leukemia) was > 100 µM, the CC50 (SR; [3]) was > 100 µM and the GI50 (HCC-2998) was 1.73 µM. For the same molecule, the Total growth inhibition (TGI) (HCC-2998) was 3.2 µM, the GI50 (RXF 393) was 1.64 µM and the Total growth inhibition (TGI) (RXF 393) was 3.12 µM. It also gave a CC50 (RXF 393; [2]) of 5.94 µM, a GI50 (OVCAR-5) of 1.92 µM and a Total growth inhibition (TGI) (OVCAR-5) of 4.61 µM. It also gave a CC50 (OVCAR-5; [2]) of 31 µM, a GI50 (NCI/ADR-RES; Ovarian) of 1.77 µM and a Total growth inhibition (TGI) (NCI/ADR-RES; Ovarian) of 3.99 µM. The CC50 (NCI/ADR-RES; read-out: 50% lethal concentration (LC50), Ovarian) was 8.99 µM, the GI50 (SK-MEL-2) was 1.79 µM and the Total growth inhibition (TGI) (SK-MEL-2) was 3.29 µM. For the same molecule, the GI50 (MDA-MB-435) was 1.5 µM, the Total growth inhibition (TGI) (MDA-MB-435) was 3.08 µM and the CC50 (MDA-MB-435; [2]) was 6.32 µM. For the same molecule, the GI50 (CCRF-CEM; Leukemia) was 2.06 µM, the Total growth inhibition (TGI) (CCRF-CEM; Leukemia) was > 100 µM and the CC50 (CCRF-CEM; [3]) was > 100 µM. For the same molecule, the GI50 (HS 578T; Breast) was 1.66 µM, the Total growth inhibition (TGI) (HS 578T; Breast) was 3.18 µM and the CC50 (HS 578T; read-out: 50% lethal concentration (LC50), Breast) was 6.12 µM. For the same molecule, the GI50 (UACC-62) was 1.65 µM, the Total growth inhibition (TGI) (UACC-62) was 3.21 µM and the CC50 (UACC-62; [2]) was 6.22 µM. For the same molecule, the GI50 (IGROV1) was 2.07 µM, the Total growth inhibition (TGI) (IGROV1) was 5.72 µM and the CC50 (IGROV1; [2]) was > 100 µM. The GI50 (UACC-257) was 1.93 µM, the Total growth inhibition (TGI) (UACC-257) was 3.87 µM and the GI50 (MDA-MB-468) was 1.63 µM. For the same molecule, the Total growth inhibition (TGI) (MDA-MB-468) was 3.13 µM, the CC50 (MDA-MB-468; [2]) was 6.01 µM and the GI50 (DU-145) was 1.97 µM. The Total growth inhibition (TGI) (DU-145) was 4.25 µM, the CC50 (DU-145; [2]) was 9.15 µM and the GI50 (OVCAR-4) was 1.74 µM. For the same molecule, the Total growth inhibition (TGI) (OVCAR-4) was 4.27 µM, the CC50 (OVCAR-4; [2]) was > 100 µM and the GI50 (BT-549) was 1.3 µM. It also gave a Total growth inhibition (TGI) (BT-549) of 3.01 µM, a GI50 (HT29) of 1.7 µM and a Total growth inhibition (TGI) (HT29) of 4.51 µM. The CC50 (HT29; [2]) was > 100 µM, the Total growth inhibition (TGI) (NCI-H23; NCI-H23, Non-Small Cell Lung) was 3.57 µM and the GI50 (NCI-H23; NCI-H23, Non-Small-Cell Lung) was 1.79 µM. It also gave a CC50 (NCI-H23; read-out: 50% lethal concentration (LC50), NCI-H23, Non-Small Cell Lung) of 7.09 µM, a GI50 (SK-OV-3) of 2.7 µM and a Total growth inhibition (TGI) (SK-OV-3) of 6.09 µM. The CC50 (SK-OV-3; [2]) was > 100 µM, the Total growth inhibition (TGI) (HOP-92; HOP-92, Non-Small Cell Lung) was 3.03 µM and the GI50 (HOP-92; HOP-92, Non-Small-Cell Lung) was 1.53 µM. For the same molecule, the CC50 (HOP-92; read-out: 50% lethal concentration (LC50), HOP-92, Non-Small Cell Lung) was 6.02 µM, the GI50 (A498) was 4.13 µM and the Total growth inhibition (TGI) (A498) was 18.4 µM. The CC50 (A498; [2]) was 53.3 µM, the GI50 (CAKI-1) was 1.56 µM and the Total growth inhibition (TGI) (CAKI-1) was 3.09 µM. For the same molecule, the CC50 (CAKI-1; [2]) was 6.13 µM, the GI50 (OVCAR-3) was 1.95 µM and the Total growth inhibition (TGI) (OVCAR-3) was 3.68 µM. It also gave a CC50 (OVCAR-3; [2]) of 6.94 µM.
